# Measured values: PMC11491004, “CHF6523 data suggest that the phosphoinositide 3-kinase delta isoform is not a suitable target for the management of COPD” (Respiratory Research, 2024)
# What was measured:
# [1] = Forced oscillation and slow vital capacity manoeuvres; type: in vivo, human; settings: Day 28
# Experimental: All assessment timings were based on the morning dose. Pre-dose on Days 1 and 28 of each treatment period, blood samples were taken for pharmacokinetic analyses, followed by forced oscillation (including slow vital capacity manoeuvres for inspiratory capacity [IC] and vital capacity [VC]), spirometry (forced expiratory volume in 1 s [FEV1] and forced vital capacity [FVC]), and the COPD Assessment Test (CAT). Blood samples were also taken up to 12 h post-dose on Days 1 and 28 for pharmacokinetic analyses, with blood samples for biomarker assessment pre-dose on Day 1 and 2 h post-dose on Day 28, and spirometry pre-dose on Days 20 and 24. Sputum was induced prior to each treatment period for baseline determination of biomarkers, and post-dose on Day 20 for collection of phosphatidylinositol (3,4,5)-trisphosphate (PIP3), and on Days 24 and 28 for collection of biomarkers.
# Fold-change from baseline in cell counts, target biomarkers in sputum and blood, and PIP3 were log-transformed and analysed using an analysis of covariance (ANCOVA) model, with treatment, patient, and period as fixed effects, and baseline value as covariate. Changes from baseline in spirometry, forced oscillation and CAT endpoints were analysed using a similar ANCOVA model, but without log transformation. Rescue medication data were analysed using an analysis of variance model, including treatment, period and patient as fixed effects. Other data, including the proportion of days on which patients coughed and the cough VAS results, are presented descriptively only. Further details, including the transcriptomics, mass-spectrometry and Olink proteomics, bioinformatics and multi-omic data integration are in the supplement.
# The Resmon PRO FULL device (MGC Diagnostics/Medisoft, St Paul, MN, USA) was used to evaluate the forced oscillometry endpoints. Patients in a sitting position and with their nose clipped supported their cheeks to reduce upper airway shunting while small amplitude pressure stimuli were applied during tidal breathing, with each manoeuvre performed in triplicate. The response of the respiratory system to this stimulation was used to derive respiratory mechanical impedance (Zrs), which comprises resistance (Rrs) and reactance (Xrs). In addition, the small amplitude pressure stimuli was also applied during execution of an expiratory slow vital capacity manoeuvre (SVC) to record inspiratory capacity (IC) and vital capacity (VC).
# Central and peripheral airway mechanics were measured using a multi frequency stimulating waveform at 5, 11, and 19 Hz, to derive the following: […]
# [2] = Safety and tolerability: adverse events; settings: safety set N = 42
# Experimental: Safety and tolerability were evaluated throughout the study in terms of the occurrence of adverse events, blood chemistry, haematology and urinalysis, vital signs, and 12-lead electrocardiograms. […] Throughout the study, patients were permitted to use salbutamol as rescue medication, but not within 6 h prior to any spirometry assessment – any rescue medication intake was also captured in the daily diary.
# The safety set, used in the analysis of all safety variables, was all randomised patients who received at least one dose of study drug. […] Given the cross-over design, the inclusion of patients in the analysis sets was defined on a per-period basis.
compound,measurement,setting,value
C[C@@H](c1oc(=O)c2ccccc2c1-c1cccc(CN2CCN(C)CC2)c1)n1nc(-c2cncc(O)c2)c2c(N)ncnc21 [CHF6523],"Breaths where expiratory flow limitation was present, adjusted mean change from baseline (95% CI)",[1],"4.960 (–2.008, 11.928) %"
same,"Breaths where expiratory flow limitation was present, adjusted mean difference CHF6523 vs placebo (95% CI)",[1],"6.482 (–3.182, 16.145); p=0.179%"
same,"Inspiratory capacity, adjusted mean change from baseline (95% CI)",[1],"–0.175 (–0.264, –0.085) (N=26) L"
same,"Inspiratory capacity, adjusted mean difference CHF6523 vs placebo (95% CI)",[1],"–0.062 (–0.191, 0.066); p=0.320 L"
same,"Mean inspiratory flow, adjusted mean change from baseline (95% CI)",[1],"0.023 (0.006, 0.041) L/sec"
same,"Reactance at 5 Hz, expiratory, adjusted mean change from baseline (95% CI)",[1],"–0.336 (–0.801, 0.130) cmH2O/L/sec"
same,"Reactance at 5 Hz, expiratory, adjusted mean difference CHF6523 vs placebo (95% CI)",[1],"–0.284 (–0.919, 0.351); p=0.365 cmH2O/L/sec"
same,"Reactance at 5 Hz, inspiratory, adjusted mean change from baseline (95% CI)",[1],"–0.119 (–0.307, 0.068) cmH2O/L/sec"
same,"Reactance at 5 Hz, inspiratory, adjusted mean difference CHF6523 vs placebo (95% CI)",[1],"–0.141 (–0.399, 0.117); p=0.272 cmH2O/L/sec"
same,"Reactance at 5 Hz, total, adjusted mean change from baseline (95% CI)",[1],"–0.263 (–0.623, 0.097) cmH2O/L/sec"
same,"Reactance at 5 Hz, total, adjusted mean difference CHF6523 vs placebo (95% CI)",[1],"–0.237 (–0.729, 0.256); p=0.332 cmH2O/L/sec"
same,"Reactance at 19 Hz, expiratory, adjusted mean change from baseline (95% CI)",[1],"–0.025 (–0.226, 0.177) cmH2O/L/sec"
same,"Reactance at 19 Hz, expiratory, adjusted mean difference CHF6523 vs placebo (95% CI)",[1],"0.079 (–0.198, 0.357); p=0.563 cmH2O/L/sec"
same,"Reactance at 19 Hz, inspiratory, adjusted mean change from baseline (95% CI)",[1],"–0.113 (–0.257, 0.031) cmH2O/L/sec"
same,"Reactance at 19 Hz, inspiratory, adjusted mean difference CHF6523 vs placebo (95% CI)",[1],"–0.072 (–0.270, 0.127); p=0.464 cmH2O/L/sec"
same,"Reactance at 19 Hz, total, adjusted mean change from baseline (95% CI)",[1],"–0.058 (–0.229, 0.112) cmH2O/L/sec"
same,"Reactance at 19 Hz, total, adjusted mean difference CHF6523 vs placebo (95% CI)",[1],"0.027 (–0.208, 0.262); p=0.814 cmH2O/L/sec"
same,"Resistance at 5 Hz minus resistance at 19 Hz, expiratory, adjusted mean change from baseline (95% CI)",[1],"0.112 (–0.080, 0.305) cmH2O/L/sec"
same,"Resistance at 5 Hz minus resistance at 19 Hz, expiratory, adjusted mean difference CHF6523 vs placebo (95% CI)",[1],"–0.112 (–0.377, 0.153); p=0.392 cmH2O/L/sec"
same,"Resistance at 5 Hz minus resistance at 19 Hz, inspiratory, adjusted mean change from baseline (95% CI)",[1],"0.198 (0.075, 0.321) cmH2O/L/sec"
same,"Resistance at 5 Hz minus resistance at 19 Hz, inspiratory, adjusted mean difference CHF6523 vs placebo (95% CI)",[1],"0.147 (–0.022, 0.317); p=0.085 cmH2O/L/sec"
same,"Resistance at 5 Hz minus resistance at 19 Hz, total, adjusted mean change from baseline (95% CI)",[1],"0.158 (0.018, 0.299) cmH2O/L/sec"
same,"Resistance at 5 Hz minus resistance at 19 Hz, total, adjusted mean difference CHF6523 vs placebo (95% CI)",[1],"–0.008 (–0.203, 0.186); p=0.929 cmH2O/L/sec"
same,"Resistance at 5 Hz, expiratory, adjusted mean change from baseline (95% CI)",[1],"0.112 (–0.149, 0.373) cmH2O/L/sec"
same,"Resistance at 5 Hz, expiratory, adjusted mean difference CHF6523 vs placebo (95% CI)",[1],"–0.118 (–0.485, 0.248); p=0.513 cmH2O/L/sec"
same,"Resistance at 5 Hz, inspiratory, adjusted mean change from baseline (95% CI)",[1],"0.216 (0.066, 0.366) cmH2O/L/sec"
same,"Resistance at 5 Hz, inspiratory, adjusted mean difference CHF6523 vs placebo (95% CI)",[1],"0.057 (–0.150, 0.264); p=0.574 cmH2O/L/sec"
same,"Resistance at 5 Hz, total, adjusted mean change from baseline (95% CI)",[1],"0.172 (–0.013, 0.356) cmH2O/L/sec"
same,"Resistance at 5 Hz, total, adjusted mean difference CHF6523 vs placebo (95% CI)",[1],"–0.051 (–0.309, 0.207); p=0.686 cmH2O/L/sec"
same,"Resistance at 19 Hz, expiratory, adjusted mean change from baseline (95% CI)",[1],"–0.002 (–0.179, 0.176) cmH2O/L/sec"
same,"Resistance at 19 Hz, expiratory, adjusted mean difference CHF6523 vs placebo (95% CI)",[1],"–0.009 (–0.261, 0.242); p=0.939 cmH2O/L/sec"
same,"Resistance at 19 Hz, inspiratory, adjusted mean change from baseline (95% CI)",[1],"0.021 (–0.094, 0.136) cmH2O/L/sec"
same,"Resistance at 19 Hz, inspiratory, adjusted mean difference CHF6523 vs placebo (95% CI)",[1],"–0.086 (–0.245, 0.072); p=0.272 cmH2O/L/sec"
same,"Resistance at 19 Hz, total, adjusted mean change from baseline (95% CI)",[1],"0.016 (–0.125, 0.156) cmH2O/L/sec"
same,"Resistance at 19 Hz, total, adjusted mean difference CHF6523 vs placebo (95% CI)",[1],"–0.040 (–0.236, 0.157); p=0.683 cmH2O/L/sec"
same,"Resonance frequency, adjusted mean change from baseline (95% CI)",[1],"0.167 (–0.960, 1.293) Hz"
same,"Resonance frequency, adjusted mean difference CHF6523 vs placebo (95% CI)",[1],"0.106 (–1.434, 1.646); 0.888 Hz"
same,"Respiratory rate, adjusted mean change from baseline (95% CI)",[1],"0.268 (–0.359, 0.895) breaths/min"
same,"Respiratory rate, adjusted mean difference CHF6523 vs placebo (95% CI)",[1],"0.784 (–0.078, 1.646); 0.073 breaths/min"
same,"Tidal expiratory flow limitation, adjusted mean change from baseline (95% CI)",[1],"0.214 (–0.130, 0.557) cmH2O/L/sec"
same,"Tidal expiratory flow limitation, adjusted mean difference CHF6523 vs placebo (95% CI)",[1],"0.111 (–0.359, 0.582); p=0.630 cmH2O/L/sec"
same,"Tidal volume, adjusted mean change from baseline (95% CI)",[1],"0.003 (–0.029, 0.036) L"
same,"Tidal volume, adjusted mean difference CHF6523 vs placebo (95% CI)",[1],"0.011 (–0.034, 0.056); p=0.620 L"
same,"Vital capacity, adjusted mean change from baseline (95% CI)",[1],"–0.083 (–0.243, 0.076) (N=26) L"
same,"Vital capacity, adjusted mean difference CHF6523 vs placebo (95% CI)",[1],"–0.018 (–0.243, 0.207); p=0.871 L"
same,CHF6523–placebo difference in inspiratory flow,[1]; p=0.015,29 mL/s
same,"Mean inspiratory flow, adjusted mean difference CHF6523 vs placebo (95% CI)",[1]; p=0.015,"0.029 (0.006, 0.052); p=0.015 L/sec"
same,Adverse events leading to death,[2],0 Patients (%)
same,Adverse events: COVID-19,[2],5 (11.9%) Patients (%)
